Results reported in ChEMBL document CHEMBL2074499, “Cloning and functional expression of a human liver organic cation transporter” (Mol Pharmacol, 1997).

What was measured:
[1] = biological target: T1, Solute carrier family 22 member 1 (Homo sapiens, UniProt O15245); assay: TP_TRANSPORTER: inhibition of MPP+ uptake (MPP+: 0.85 uM, Pancuronium: 1000 uM) in Xenopus laevis oocytes; assay type: functional, cell-based; settings: oocyte
T1 sequence (O15245 whole entry): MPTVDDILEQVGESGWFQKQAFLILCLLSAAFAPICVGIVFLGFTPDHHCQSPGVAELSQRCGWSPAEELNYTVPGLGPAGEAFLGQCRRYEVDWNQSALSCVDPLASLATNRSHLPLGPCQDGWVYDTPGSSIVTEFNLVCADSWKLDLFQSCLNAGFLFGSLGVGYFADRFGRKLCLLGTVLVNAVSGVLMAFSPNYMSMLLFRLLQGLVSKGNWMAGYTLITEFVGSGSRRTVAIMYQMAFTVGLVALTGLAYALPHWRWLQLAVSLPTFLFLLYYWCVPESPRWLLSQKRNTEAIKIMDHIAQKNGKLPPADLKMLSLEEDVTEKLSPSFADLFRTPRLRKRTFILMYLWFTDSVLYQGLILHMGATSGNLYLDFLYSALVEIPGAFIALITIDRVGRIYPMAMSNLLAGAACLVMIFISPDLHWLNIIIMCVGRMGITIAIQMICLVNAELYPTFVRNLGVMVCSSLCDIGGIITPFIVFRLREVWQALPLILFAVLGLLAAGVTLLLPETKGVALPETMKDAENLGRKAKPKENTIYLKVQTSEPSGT

[2] = biological target: T1, Solute carrier family 22 member 1; assay: TP_TRANSPORTER: inhibition of MPP+ uptake (MPP+: 0.85 uM, NMN: 5000 uM) in Xenopus laevis oocytes; assay type: functional, cell-based; settings: oocyte
[3] = biological target: T1, Solute carrier family 22 member 1; assay: TP_TRANSPORTER: inhibition of MPP+ uptake (MPP+: 0.85 uM, Thymidine: 5000 uM) in Xenopus laevis oocytes; assay type: functional, cell-based; settings: oocyte
[4] = biological target: T1, Solute carrier family 22 member 1; assay: TP_TRANSPORTER: inhibition of MPP+ uptake in Xenopus laevis oocytes; assay type: functional, cell-based, Oocyte
[5] = biological target: T1, Solute carrier family 22 member 1; assay: TP_TRANSPORTER: inhibition of MPP+ uptake (MPP+: 0.85 uM, Quinidine: 1000 uM) in Xenopus laevis oocytes; assay type: functional, cell-based; settings: oocyte
[6] = biological target: T1, Solute carrier family 22 member 1; assay: TP_TRANSPORTER: inhibition of MPP+ uptake (MPP+: 0.85 uM, Verapamil: 5000 uM) in Xenopus laevis oocytes; assay type: functional, cell-based; settings: oocyte
[7] = biological target: T1, Solute carrier family 22 member 1; assay: TP_TRANSPORTER: inhibition of MPP+ uptake (MPP+: 0.15 uM, Inosine: 1000 uM) in Xenopus laevis oocytes; assay type: functional, cell-based; settings: oocyte
[8] = biological target: T1, Solute carrier family 22 member 1; assay: TP_TRANSPORTER: inhibition of MPP+ uptake (MPP+: 0.85 uM, Quinine: 1000 uM) in Xenopus laevis oocytes; assay type: functional, cell-based; settings: oocyte
[9] = biological target: T1, Solute carrier family 22 member 1; assay: TP_TRANSPORTER: inhibition of MPP+ uptake (MPP+: 0.85 uM, Procainamide: 5000 uM) in Xenopus laevis oocytes; assay type: functional, cell-based; settings: oocyte
[10] = substrate: C[n+]1ccc(-c2ccccc2)cc1; assay: TP_TRANSPORTER: uptake in Xenopus laevis oocytes; assay type: functional, cell-based, Oocyte

For `CC(=O)O[C@H]1C[C@@H]2CC[C@@H]3[C@H](CC[C@@]4(C)[C@H]3C[C@H]([N+]3(C)CCCCC3)[C@@H]4OC(C)=O)[C@@]2(C)C[C@@H]1[N+]1(C)CCCCC1` [PANCURONIUM], the Activity [1] was “inhibitor [+]”.

For `CNC(=O)c1cccnc1` [NICOTINYL METHYLAMIDE], the Activity [2] was “inhibitor [+]”.

In the case of `Cc1cn([C@H]2C[C@H](O)[C@@H](CO)O2)c(=O)[nH]c1=O` [DOXRIBTIMINE], the Activity [3] is reported as “inhibitor [+]”.

`CCN1/C(=C/c2ccc3ccccc3[n+]2CC)C=Cc2ccccc21` gave a Ki [4] of 4.4 µM.

`C=C[C@H]1C[N@@]2CC[C@H]1C[C@@H]2[C@@H](O)c1ccnc2ccc(OC)cc12` [QUINIDINE] was tested, and the Activity [5] was “inhibitor [+]”.

In the case of `COc1ccc(CCN(C)CCCC(C#N)(c2ccc(OC)c(OC)c2)C(C)C)cc1OC` (configuration not stated), the Activity [6] is reported as “inhibitor [+]”.

With `OC[C@H]1O[C@@H](n2cnc3c(O)ncnc32)[C@H](O)[C@@H]1O` [INOSINE] the Activity [7] was “inhibitor [+]”.

With `C=C[C@H]1C[N@@]2CC[C@H]1C[C@H]2[C@H](O)c1ccnc2ccc(OC)cc12` [QUININE] the Activity [8] was “inhibitor [+]”.

Molecule `CC(=O)O[C@H]1C[C@@H]2CC[C@@H]3[C@H](CC[C@@]4(C)[C@H]3C[C@H]([N+]3(C)CCCCC3)[C@@H]4OC(C)=O)[C@@]2(C)C[C@@H]1N1CCCCC1` [VECURONIUM] has a Ki [4] of 120 µM.

With `CC[N+](CC)(CC)CC` [TETRYLAMMONIUM] the Ki [4] was 163 µM.

With `CCN(CC)CCNC(=O)c1ccc(N)cc1` [PROCAINAMIDE] the Activity [9] was “inhibitor [+]”.

B1: Solute carrier family 22 member 1 (Homo sapiens) (protein)
chain: MPTVDDILEQVGESGWFQKQAFLILCLLSAAFAPICVGIVFLGFTPDHHCQSPGVAELSQRCGWSPAEELNYTVPGLGPAGEAFLGQCRRYEVDWNQSALSCVDPLASLATNRSHLPLGPCQDGWVYDTPGSSIVTEFNLVCADSWKLDLFQSCLNAGFLFGSLGVGYFADRFGRKLCLLGTVLVNAVSGVLMAFSPNYMSMLLFRLLQGLVSKGNWMAGYTLITEFVGSGSRRTVAIMYQMAFTVGLVALTGLAYALPHWRWLQLAVSLPTFLFLLYYWCVPESPRWLLSQKRNTEAIKIMDHIAQKNGKLPPADLKMLSLEEDVTEKLSPSFADLFRTPRLRKRTFILMYLWFTDSVLYQGLILHMGATSGNLYLDFLYSALVEIPGAFIALITIDRVGRIYPMAMSNLLAGAACLVMIFISPDLHWLNIIIMCVGRMGITIAIQMICLVNAELYPTFVRNLGVMVCSSLCDIGGIITPFIVFRLREVWQALPLILFAVLGLLAAGVTLLLPETKGVALPETMKDAENLGRKAKPKENTIYLKVQTSEPSGT
In the case of B1, the Km [10] is reported as 14.6 µM.
